Tested on: protein (gelatin) layers of photographic film
Assay: Photographic film test: removal of gelatin protein layers by enzyme in heated water
Format: biochemical
Conditions: 400 ppm additive, 160-170° F
Text: Photographic film contains a layer of a binding agent that is a protein (gelatin) which is readily attacked and removed by protease under ambient conditions. The film has multiple colored layers of the gelatin binding agent which can serve as an indication of the degree of attack if exposed to suitable enzymes. Photographic film was used in experiments to show the ability of enzymes, proteases, to attach or remove the protein layer under various conditions.
In the experiments outlined in Table 1, a beaker was charged with 5 grain tap water. An activator, “Additive 1”, was added to the beaker with the water temperature adjusted to the temperature as shown in the “Temp (F) Additive 1” column. The solution was then adjusted for the film test to the temperature as shown in “Temp (F) Enzyme” and a protease enzyme and section of photographic film added. The solution was stirred for 5 minutes and the film recovered and wiped with a paper towel for visual examination.
The additive, enzyme and then the combination of protease enzyme and additives were heated to the temperatures indicated in the applicable columns to analyze the various conditions under which the protease enzyme was able to readily attack and removed the protein (gelatin) layers of the photographic film. […]

Compound | additive function as activator/stabilizer of enzymes at elevated temperatures
O=C(O)[C@@H]1CCCN1 [proline] | function to activate and/or stabilize enzymes
cocoamidyl propyl butane [CAPB] | function to activate and/or stabilize enzymes

— patent US20130157345A1, “STABILIZATION AND ACTIVATION OF PROTEASE FOR USE AT HIGH TEMPERATURE” (ECOLAB USA INC., priority 2011, published 2013)
